Twelve compounds from ChEMBL document CHEMBL4406853 (Eur J Med Chem, 2019) can be followed below.

The target of assay [1] is T1, Kappa-type opioid receptor (Homo sapiens, UniProt P41145). Briefly: Binding affinity to kappa opioid receptor (unknown origin).
In assay [2] the test system is Mus musculus. Description: Antinociceptive activity in icv dosed mouse. It counts as functional.
Assay [3] concerns the target T2, Mu-type opioid receptor (Homo sapiens, UniProt P35372). Description: Inhibition of mu opioid receptor (unknown origin) assessed as increase in beta arrestin recruitment relative to control. It counts as functional. (In general: Arrestin recruitment assays detect the binding of arrestin to an activated receptor.)
Assay [4] deals with T2, Mu-type opioid receptor. Description: Inhibition of mu opioid receptor (unknown origin) expressed in human […] cells by [35S]-GTPgammaS binding assay. It counts as functional, cell-based. In general terms: GTPγS is a poorly hydrolysed GTP analogue; its binding reports G protein activation.
Assay [5] addresses T3, Delta-type opioid receptor (Homo sapiens, UniProt P41143). Briefly: Inhibition of delta opioid receptor (unknown origin) expressed in human […] cells by [35S]-GTPgammaS binding assay. It counts as functional, cell-based.
Assay [6] has as its target T2, Mu-type opioid receptor. Description: Inhibition of mu opioid receptor (unknown origin) expressed in human […] cells by [35S]-GTPgammaS binding assay relative to control. It counts as functional, cell-based.
Assay [7] addresses T3, Delta-type opioid receptor. Briefly: Inhibition of delta opioid receptor (unknown origin) assessed as increase in beta arrestin recruitment relative to control. It counts as functional.
Assay [8] has as its target T3, Delta-type opioid receptor. Briefly: Inhibition of delta opioid receptor (unknown origin) expressed in human […] cells by [35S]-GTPgammaS binding assay relative to control. It counts as functional, cell-based.
Assay [9] concerns the target T2, Mu-type opioid receptor. Briefly: Inhibition of mu opioid receptor (unknown origin) expressed in human […] cells assessed as increase in beta arrestin recruitment. It counts as functional, cell-based.
Assay [10] addresses T3, Delta-type opioid receptor. Briefly: Inhibition of delta opioid receptor (unknown origin) expressed in human […] cells assessed as increase in beta arrestin recruitment. It counts as functional, cell-based.
Assay [11] deals with T2, Mu-type opioid receptor. Briefly: Inhibition of mu opioid receptor (unknown origin) expressed in HEK293 cells assessed as inhibition of forskolin-stimulated intracellular cAMP accumulation preincubated for 30 mins followed by forskolin-stimulation and measured after 60 mins. It counts as functional, cell-based. On the technique in general: cAMP levels reflect the balance of adenylyl cyclase and phosphodiesterase activity.

Assay [12] has as its target T2, Mu-type opioid receptor. Briefly: Inhibition of mu opioid receptor (unknown origin) expressed in HEK293 cells assessed as inhibition of forskolin-stimulated […] preincubated for 30 mins followed by forskolin-stimulation and measured after 60 mins. It counts as cell-based.
Assay [13] is described as follows: Inhibition of delta opioid receptor in guinea pig brain membranes. It counts as cell membranes, Cavia porcellus.
Assay [14] concerns the target T4, Mu-type opioid receptor (Cavia porcellus, UniProt P97266). Description: Agonist activity at mu opioid receptor in guinea pig brain membranes by [35S]-GTPgammaS binding assay. It counts as functional, cell membranes.
Assay [15] deals with T5, Kappa-type opioid receptor (Cavia porcellus, UniProt P41144). Briefly: Agonist activity at kappa opioid receptor in guinea pig brain membranes by [35S]-GTPgammaS binding assay. It counts as functional, cell membranes.
The target of assay [16] is T5, Kappa-type opioid receptor. Briefly: Inhibition of kappa opioid receptor in guinea pig brain membranes. It counts as cell membranes.
Assay [17] can be described thus: Agonist activity at delta opioid receptor in guinea pig brain membranes by [35S]-GTPgammaS binding assay. It counts as cell membranes, Cavia porcellus.
Assay [18] has as its target T4, Mu-type opioid receptor. Briefly: Inhibition of mu opioid receptor in guinea pig brain membranes. It counts as cell membranes.
Assay [19] addresses T3, Delta-type opioid receptor. Description: Inhibition of full length delta opioid receptor (unknown origin) assessed as inhibition of forskolin-stimulated intracellular cAMP accumulation. It counts as functional, cell-based.
Assay [20] concerns the target T2, Mu-type opioid receptor. Briefly: Inhibition of mu opioid receptor (unknown origin).
Assay [21] has as its target T3, Delta-type opioid receptor. Briefly: Inhibition of delta opioid receptor (unknown origin) by radioligand binding assay.
Assay [22] has as its target T3, Delta-type opioid receptor. Description: Inhibition of full length delta opioid receptor (unknown origin) assessed as increase in beta arrestin 1 recruitment.
The species entered for assay [23] is Homo sapiens. Description: Selectivity ratio of IC50 for mu opioid receptor (unknown origin) to IC50 for delta opioid receptor (unknown origin) by radioligand binding assay.
Assay [24] is filed under the species Homo sapiens. Briefly: Selectivity ratio of IC50 for mu opioid receptor (unknown origin) to IC50 for delta opioid receptor (unknown origin) by MVD assay.
Assay [25] deals with T3, Delta-type opioid receptor. Description: Inhibition of full length delta opioid receptor (unknown origin) assessed as increase in beta arrestin 2 recruitment.
For assay [26], the target named is T3, Delta-type opioid receptor. Briefly: Inhibition of delta opioid receptor (unknown origin) by MVD assay.
Assay [27] addresses T2, Mu-type opioid receptor. Briefly: Inhibition of mu-opioid receptor (unknown origin) by [35S]-GTPgammaS binding assay. It counts as functional.
Assay [28] has as its target T1, Kappa-type opioid receptor. Description: Inhibition of kappa-opioid receptor (unknown origin) by [35S]-GTPgammaS binding assay. It counts as functional.
Assay [29] concerns the target T2, Mu-type opioid receptor. Briefly: Displacement of [3H]DAMGO from mu opioid receptor (unknown origin) expressed in HEK293 cells after 1 hr by liquid scintillation counting. It counts as cell-based.
Assay [30] deals with Mus musculus. Briefly: Antinociceptive activity in icv dosed Kunming mouse. It counts as functional. The following applies: central.
For assay [31], the system named is Mus musculus. Briefly: Antinociceptive activity in iv dosed Kunming mouse. It counts as functional.
The species entered for the next assay is Cavia porcellus. Description: Agonist activity at delta opioid receptor in guinea pig brain membranes by [35S]-GTPgammaS binding assay relative to control. It counts as cell membranes.
For assay [32], the target named is Kappa-type opioid receptor (Cavia porcellus) (UniProt P41144). Description: Agonist activity at kappa opioid receptor in guinea pig brain membranes by [35S]-GTPgammaS binding assay relative to control. It counts as functional, cell membranes.
The target in assay [33] is Mu-type opioid receptor (Cavia porcellus) (UniProt P97266). Briefly: Agonist activity at mu opioid receptor in guinea pig brain membranes by [35S]-GTPgammaS binding assay relative to control. It counts as functional, cell membranes.

Non-standard residues stand in square brackets, D forms with d. Residues, ends and D or L forms follow the SMILES beside them. ξ: configuration not given here. ξP = O=C(O)C1CCCN1 Where only a bound is given, the exact number is not on record here.

T5 sequence (P41144 whole entry): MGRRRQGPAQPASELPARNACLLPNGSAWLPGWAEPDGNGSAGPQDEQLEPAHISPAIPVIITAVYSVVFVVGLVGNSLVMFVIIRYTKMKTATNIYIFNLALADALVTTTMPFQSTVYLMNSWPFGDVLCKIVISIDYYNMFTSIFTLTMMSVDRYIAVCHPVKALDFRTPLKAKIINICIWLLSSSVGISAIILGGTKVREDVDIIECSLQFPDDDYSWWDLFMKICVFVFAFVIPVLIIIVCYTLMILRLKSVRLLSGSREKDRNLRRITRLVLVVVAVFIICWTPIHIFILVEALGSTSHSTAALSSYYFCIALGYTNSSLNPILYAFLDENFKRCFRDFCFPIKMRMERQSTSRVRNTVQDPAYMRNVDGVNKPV
T4 sequence (P97266 whole entry): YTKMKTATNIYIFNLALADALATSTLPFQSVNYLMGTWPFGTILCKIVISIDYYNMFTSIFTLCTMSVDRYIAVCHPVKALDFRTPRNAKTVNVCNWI
T2 sequence (P35372 whole entry): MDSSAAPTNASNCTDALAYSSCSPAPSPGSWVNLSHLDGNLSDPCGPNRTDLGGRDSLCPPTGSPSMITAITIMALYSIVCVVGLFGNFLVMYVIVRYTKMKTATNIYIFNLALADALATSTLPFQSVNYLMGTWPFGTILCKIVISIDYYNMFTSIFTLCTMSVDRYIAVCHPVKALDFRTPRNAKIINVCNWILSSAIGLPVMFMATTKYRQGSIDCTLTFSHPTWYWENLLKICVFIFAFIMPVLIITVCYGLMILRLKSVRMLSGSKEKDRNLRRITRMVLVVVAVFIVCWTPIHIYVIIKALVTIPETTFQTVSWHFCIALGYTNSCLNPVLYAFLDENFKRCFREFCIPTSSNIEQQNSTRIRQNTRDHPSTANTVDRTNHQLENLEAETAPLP
T3 sequence (P41143 whole entry): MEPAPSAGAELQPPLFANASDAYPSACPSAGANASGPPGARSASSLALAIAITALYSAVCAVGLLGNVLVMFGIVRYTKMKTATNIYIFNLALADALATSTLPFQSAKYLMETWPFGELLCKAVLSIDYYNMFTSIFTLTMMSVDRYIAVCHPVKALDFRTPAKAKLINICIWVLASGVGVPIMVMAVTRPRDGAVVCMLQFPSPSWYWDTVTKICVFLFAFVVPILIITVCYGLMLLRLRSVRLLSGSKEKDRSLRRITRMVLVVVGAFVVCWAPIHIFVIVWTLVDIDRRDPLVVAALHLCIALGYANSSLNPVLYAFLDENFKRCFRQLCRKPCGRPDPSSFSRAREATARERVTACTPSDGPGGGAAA
T1 sequence (P41145 whole entry): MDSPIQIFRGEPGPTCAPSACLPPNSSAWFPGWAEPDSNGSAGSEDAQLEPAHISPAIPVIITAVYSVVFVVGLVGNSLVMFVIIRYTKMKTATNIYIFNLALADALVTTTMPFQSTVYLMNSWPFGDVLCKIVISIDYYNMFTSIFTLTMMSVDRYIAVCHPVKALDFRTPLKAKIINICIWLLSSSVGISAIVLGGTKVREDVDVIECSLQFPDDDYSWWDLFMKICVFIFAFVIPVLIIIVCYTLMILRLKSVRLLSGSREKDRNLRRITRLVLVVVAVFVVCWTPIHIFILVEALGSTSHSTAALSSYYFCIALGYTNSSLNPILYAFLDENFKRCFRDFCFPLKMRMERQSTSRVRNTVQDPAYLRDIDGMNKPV
Chain of Kappa-type opioid receptor (Cavia porcellus) (P41144 whole entry): as the sequence (P41144 whole entry) above
Chain of Mu-type opioid receptor (Cavia porcellus) (P97266 whole entry): as the sequence (P97266 whole entry) above

By Kd is commonly meant the constant that tells how readily two partners part at equilibrium. A high value points to lower affinity. Consider `COC(=O)[C@@H]1C[C@H](OC(=O)CSC#N)C(=O)[C@H]2[C@@]1(C)CC[C@H]1C(=O)O[C@H](c3ccoc3)C[C@]21C` [22-THIOCYANATOSALVINORIN A], for which the Kd in assay [1] came out at 0.00059 µM.

For the compound `Oc1cccc(CCN(CCc2ccccc2)CC2CCC2)c1`, the ED50 with Mus musculus [2] came to 3.74 nmol.

By Emax is commonly meant the greatest response seen or fitted, relative to the assay's reference. As usually defined, the EC50 is the concentration that produces a half-maximal response. With `CCOC(=O)C1(CCc2ccccc2)CCN(Cc2ccc(NC(C)=O)cc2)CC1`, the Emax came out at 1200% at Mu-type opioid receptor [3], 168% on Mu-type opioid receptor [6], 1200% in assay [7] and 168% in [8]. In addition, the EC50 was 0.054 µM at Mu-type opioid receptor [4], 0.054 µM in [5], 8.3 µM on Mu-type opioid receptor [9] and 8.3 µM in assay [10].

As to `C[C@@H](Cc1ccsc1)NC(=O)NC[C@H](Cc1ccc2ccccc2c1)N(C)C`, the EC50 at Mu-type opioid receptor [11] and on Mu-type opioid receptor [12] was 0.0524 to 0.0911 µM in each case.

The term Ki denotes the dissociation constant of the complex between target and ligand, obtained from inhibition or displacement. Higher therefore signals weaker binding. For the compound `CC[C@@H]1CN2CC[C@@]3(O)C(=Nc4cccc(OC)c43)[C@@H]2C[C@@H]1/C(=C\OC)C(=O)OC`, the inhibition constant Ki in assay [13] is 0.06 µM; in assay [16] it was more than 1 µM; on Mu-type opioid receptor [18], 0.0072 µM. The EC50 (at Mu-type opioid receptor [14]; in assay [15]; in assay [17]) was 0.053 µM each time.

As a reminder, the IC50 is the concentration that inhibits the measured activity by half. For the compound `CC(C)C[C@H](NC(=O)C1CCCN1C(=O)[C@@H](N)Cc1ccc(O)cc1)C(=O)N[C@@H](CC(=O)O)C(=O)N[C@@H](CC(C)C)C(=O)N[C@@H](Cc1ccccc1)C(=O)O` (stereo partly drawn) (H-Y[ξP]LDLF-OH), the IC50 in [19] was 1.58 µM; on Mu-type opioid receptor [20], more than 2000 µM; in assay [21], 0.9 µM; in [26] it was 24.4 µM. Also, the EC50 in assay [22] and in assay [25] was 7.94 µM each time. Further, the Ratio IC50 in the assay filed under Homo sapiens [23] and in the assay listed under Homo sapiens [24] was 500 in each case.

For the compound `CCC1(C)CC(CCNCc2ccccc2O)(c2ccccc2OC)CCO1` (stereo not drawn), the EC50 stood at 1.1 µM on Mu-type opioid receptor [27] and 3.4 µM in assay [28].

`C=C(C(N)=O)C(NC(=O)[C@H](Cc1ccccc1)NC(=O)[C@@H](C)N(C)C(=O)C(N)Cc1c(C)cc(O)cc1C)c1ccccc1` (stereo partly drawn): on Mu-type opioid receptor [29], the half-maximal effective concentration (EC50) was in the range of 1.77 to 5.15 pM and the Ki lay in the range of 0.0109 to 0.0511 nM.

For `C[C@@H](Cc1ccsc1)NC(=O)NC[C@H](Cc1cccc2ccccc12)N(C)C`, the EC50 on Mu-type opioid receptor [11] and at Mu-type opioid receptor [12] was 0.456 µM in each case.

For `C=C(C(N)=O)C(NC(=O)[C@H](Cc1ccccc1)NC(=O)[C@@H](C)N(C)C(=O)C(N)Cc1c(C)cc(O)cc1C)c1ccco1` (stereo partly drawn), in the assay on Mus musculus [30], the ED50 was found to be 0.0226 µmol/kg. This compound also had an ED50 in the assay with Mus musculus [31] of 0.000489 µmol/kg. Besides, at Mu-type opioid receptor [29], the EC50 was 1.77 to 5.15 pM and the Ki was in the range of 0.0109 to 0.0511 nM.

`CC(C)C[C@H](NC(=O)[C@H](CC(=O)O)NC(=O)[C@H](CC(C)C)NC(=O)C1CCCN1C(=O)[C@@H](N)Cc1ccc(O)cc1)C(=O)O` (stereo partly drawn) (H-Y[ξP]LDL-OH): the IC50 in assay [19] is 6.31 µM; against Mu-type opioid receptor [20], 1090 µM; in [21], 2 µM; in assay [26], 51 µM. The EC50 in assay [22] and in [25] was 79.4 µM each time. The Ratio IC50 in the assay listed under Homo sapiens [23] and in the assay listed under Homo sapiens [24] was 500 throughout.

Turning to `CC[C@@H]1CN2CCc3c([nH]c4cccc(OC)c34)[C@@H]2C[C@@H]1/C(=C\OC)C(=O)OC`, the figures for the Ki (in [13]; in assay [16]; on Mu-type opioid receptor [18]) were 0.155 µM, 0.123 µM and 0.013 µM, respectively. For the same compound, the Emax (in the assay listed under Cavia porcellus; in [32]; in assay [33]) was 65% throughout. Also, the EC50 (on Mu-type opioid receptor [14]; in [15]; in [17]) was 0.23 µM each time.
